From PubChem BioAssay AID602191 (Broad Institute, 2012)
Active and inactive are the calls of the source.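 The calls were made as follows: active = fitted curve reaches 40% activation at a concentration no higher than the top valid tested dose; inconclusive = flat fit between 30% and 70% activation, or poor fit; inactive = uptake decrease, flat fit within 30% of zero, the rest.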

Each compound was assayed against Scavenger receptor class B member 1 (Mus musculus) (UniProt Q61009) (assay: activators of SR-BI-mediated HDL uptake, dose response, cell-based, ldlA[mSR-BI] CHO, DiI fluorescence, cherry-pick (AID 602191;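 also: cell fluorescence from internalized DiI-labeled HDL after washing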;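 as to AC40: potency of activators raising HDL uptake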;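 as to activation (HDL uptake increase): 0% = median of DMSO wells and 100% = twice the DMSO signal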)). Settings: ldlA[mSR-BI] CHO cells, 3 h.
Sequence of Scavenger receptor class B member 1 (Mus musculus) (Q61009 whole entry, looked up): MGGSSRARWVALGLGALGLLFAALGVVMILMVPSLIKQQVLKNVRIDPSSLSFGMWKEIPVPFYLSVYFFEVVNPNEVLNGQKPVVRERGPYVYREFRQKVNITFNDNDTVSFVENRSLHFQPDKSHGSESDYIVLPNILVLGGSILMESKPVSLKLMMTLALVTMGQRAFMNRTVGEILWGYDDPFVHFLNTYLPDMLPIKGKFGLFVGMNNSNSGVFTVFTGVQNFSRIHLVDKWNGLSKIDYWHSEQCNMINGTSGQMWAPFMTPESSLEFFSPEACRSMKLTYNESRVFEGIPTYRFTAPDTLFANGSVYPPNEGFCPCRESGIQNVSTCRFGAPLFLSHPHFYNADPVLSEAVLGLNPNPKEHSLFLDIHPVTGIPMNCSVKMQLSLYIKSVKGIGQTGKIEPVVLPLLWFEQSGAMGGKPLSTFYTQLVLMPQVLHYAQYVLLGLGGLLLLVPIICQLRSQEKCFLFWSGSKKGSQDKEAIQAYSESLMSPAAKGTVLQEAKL

Row | Structure (SMILES) | AC40
1 | O=C(C[C@H]1C[C@H](C(=O)N2CCCCC2)[C@@]2(CCc3ccccc3)c3[nH]c4ccc(Cl)cc4c3CCN2C1=O)NCc1cccc(C(F)(F)F)c1 | > 35 µM (inactive)
2 | CCOC(=O)c1ccc(NC(=O)c2nc[nH]c2C(=O)NCCCCNC(=O)c2[nH]cnc2C(=O)Nc2ccc(C(=O)OCC)cc2)cc1 | 29.8 µM
3 | NC(=O)c1ncn([C@@H]2O[C@H](CN=C3NS(=O)(=O)c4ccccc43)[C@@H](O)[C@H]2O)n1 | > 35 µM (inactive)

Same assay, conditions: ldlA[mSR-BI] CHO cells, 3 h, at 35 µM (top of the series)

Row | Structure (SMILES) | activation (HDL uptake increase)
4 | O=S1(=O)CCO[C@H]2Cc3ccccc3[C@H]2N1Cc1ccccc1 | -12.6% (inactive)
5 | CCOC(=O)C1=C(COC(=O)[C@H](C)NS(=O)(=O)c2ccc(NC(C)=O)cc2)NC(=O)NC1C (some centres undefined) | -9.73% (inactive)
6 | O=C(N/N=C\c1cccnc1)c1ccc(Br)s1 | -10.3% (inactive)
7 | O=C(NNC(=O)C1CC(c2cccnc2)=NO1)Nc1cccc(F)c1 (centres undefined) | -5.33% (inactive)
8 | NCCCC[C@H]1CNC(=O)C(=O)N1CCc1cccc2ccccc12 | -5.05% (inactive)
9 | CC(C(=O)NCCS(=O)(=O)c1ccc(Br)cc1)S(=O)(=O)c1ccc(Cl)cc1 (centres undefined) | 11.1% (inactive)
10 | O=C(NCc1cccc(Cl)c1)c1ccc(CS(=O)Cc2ccccc2Cl)o1 (centres undefined) | 0.636% (inactive)
11 | O=C1C2CCCN2C(=O)N1CCCCN1CCN(c2ccccc2)CC1 (centres undefined) | 10.3% (inactive)
12 | CC(C)(C)NC(=O)C[C@H]1C[C@H](C(=O)N2CCOCC2)[C@@]2(CCC3CCCC3)c3[nH]c4cc(-c5ccco5)ccc4c3CCN2C1=O | -1.73% (inactive)
13 | CCN(CC)C(=O)c1ncn(Cc2ccccc2)c1C(=O)N(CC)CC | -3.26% (inactive)
14 | O=C(COc1ccc([N+](=O)[O-])cc1)NCc1cccnc1 | -4.82% (inactive)
15 | CC1Cc2cc(/C(O)=C3/C(=O)C(=O)N(CCN4CCOCC4)C3c3ccc([N+](=O)[O-])cc3)ccc2O1 (centres undefined) | 13.1% (inactive)
16 | CCn1nnnc1-c1ccc(OC)c(S(=O)(=O)Nc2ccc(C)c(C)c2)c1 | -11.8% (inactive)
17 | Cc1cc(C)nc(Nc2ncc(O)n2-c2ccccc2)n1 | -7.64% (inactive)
18 | CCN1C(=O)C2C(c3cccc(F)c3)NC(CC)(C(=O)OC)C2C1=O (centres undefined) | -4.79% (inactive)
19 | O=C(CCN1C(=O)/C(=C\C=C\c2ccccc2)SC1=S)Nc1ccc(C(=O)O)cc1 | -14.1% (inactive)

Row | Structure (SMILES) | activation (HDL uptake increase)
20 | COc1ccc(CCN2CC(C(=O)NCc3cnn(C(C)C)c3)CCC2=O)cc1 (centres undefined) | -1.83% (inactive)
21 | NCCc1nnc(SCc2ccccc2)o1 | 5.16% (inactive)
22 | O=C(COc1ccc(C(=O)c2ccccc2)cc1)NC1CCCCC1 | -7.46% (inactive)
23 | O=C(C[C@H]1C[C@H](C(=O)N2CCOCC2)[C@@]2(CCC3CCCC3)c3[nH]c4ccc(Cl)cc4c3CCN2C1=O)NCc1ccco1 | -3.23% (inactive)
24 | COc1ccc(C(=O)Nc2nnc(SCC(=O)Nc3ccc(NC(C)=O)cc3)s2)c(OC)c1 | -6.9% (inactive)
25 | Cn1c(SCC(=O)N2CCCCCC2)nc2c(c1=O)SCC2 | -10.7% (inactive)
26 | COC(=O)c1ccc([C@@H](O)[C@H](C)C(=O)CC(=O)OC(C)(C)C)cc1 | 4.09% (inactive)
27 | O=C(Cc1ccsc1)N1CCN(S(=O)(=O)c2cccc(F)c2)CC1 | -4.56% (inactive)
28 | O=C1C2C(c3ccccc3)CC=CC2[C@H](c2ccc(C(F)(F)F)cc2)N1Cc1ccccc1 (some centres undefined) | -16.7% (inactive)
29 | CC1CCCC(NC(=O)COC(=O)c2ccc3ccccc3n2)C1C (centres undefined) | -7.88% (inactive)
30 | Cc1ccc(NC(=O)CSCC(N)=O)cc1C | -9.19% (inactive)
31 | N#Cc1ccc(OCCOCCNC2CCCC2)cc1 | 13.4% (inactive)
32 | Cc1ccc2nc(N(CCCN(C)C)C(=O)c3ccc(S(=O)(=O)N4CCOCC4)cc3)sc2c1 | -2.75% (inactive)
33 | CC1CCc2c(C(=O)NCCN3CCOCC3)csc2C1 (centres undefined) | -15.7% (inactive)
34 | COc1cccc(OC)c1C(=O)N1CCN(Cc2ccccc2C)CC1 | -7.18% (inactive)

Now from value to compound:

Row | activation (HDL uptake increase) | Structure (SMILES)
35 | -4.96% (inactive) | CCCn1c(N)c(N(CCOC)C(=O)c2ccc(S(=O)(=O)N3CCOCC3)cc2)c(=O)[nH]c1=O
36 | -5.05% (inactive) | O=C(CCC(=O)OCC(=O)c1ccc([N+](=O)[O-])cc1)Nc1ccccc1Cl
37 | -4.96% (inactive) | COCCNC(=O)c1onc(CSc2ccc(F)c(F)c2)c1C(=O)O
38 | -3.69% (inactive) | CC(=O)Nc1ccc(SCC(=O)NC(=O)c2ccc(S(=O)(=O)N(C)C)cc2)cc1
39 | 44.6% (inactive) | C[C@H](CO)N1C[C@H](C)[C@H](CN(C)Cc2ccc(-c3ccccc3)cc2)Oc2ccc(NS(=O)(=O)c3ccccc3)cc2CC1=O
40 | 11.6% (inactive) | CCN(CC(=O)Nc1c(F)cccc1F)C(=O)C1CCN(S(=O)(=O)c2ccc(F)cc2)CC1
41 | -5.87% (inactive) | CN1CCN(C(=O)C2CCCN(S(=O)(=O)c3ccc(Br)cc3)C2)CC1 (centres undefined)
42 | -5.82% (inactive) | COc1ccccc1OCC(=O)OCc1cc(-c2ccco2)on1
43 | -8.02% (inactive) | CCCN1CCC(NC(=O)C2CCCCC2C(=O)O)CC1 (centres undefined)
44 | -1.54% (inactive) | C[C@H](NC(=O)c1nc[nH]c1C(=O)NCc1ccccc1)c1ccccc1
45 | 2.24% (inactive) | Cc1cccc(C)c1OCc1cc(C(=O)N2CCC(c3ccccc3)CC2)no1
46 | -4.2% (inactive) | COCCCNC(=O)CC(NS(=O)(=O)c1ccc(OC)cc1)c1ccc(OC)cc1 (centres undefined)
47 | 1.17% (inactive) | Cc1csc(NC(=O)Cc2ccccc2[N+](=O)[O-])n1
48 | -2.51% (inactive) | CCN(CC)CCCNC(CC(=O)Nc1cccc([N+](=O)[O-])c1)C(=O)O (centres undefined)
49 | -7.25% (inactive) | CC(C)CN(C(=O)CN1C(=O)C2CCCCC2C1=O)c1c(N)n(Cc2ccccc2)c(=O)[nH]c1=O (centres undefined)
50 | -14.9% (inactive) | O=C(c1ccc(NS(=O)(=O)c2cccc([N+](=O)[O-])c2)cc1)N1CCN(C(=O)c2ccco2)CC1
51 | -0.287% (inactive) | CN1CCN(C(=O)C2CCN(S(=O)(=O)c3ccc4c(c3)oc(=O)n4C)CC2)CC1
52 | -6.8% (inactive) | COc1ccc(NC(=O)CN(C)C(=O)CCC2CCCC2)cc1
53 | 0.551% (inactive) | Cc1ccc(SCC(=O)NNC(=O)CCS(=O)(=O)c2ccc(C)cc2)cc1
54 | -7.36% (inactive) | COc1ccc(C(C(=O)NC2CCCCC2)N(C(=O)CCl)c2ccccc2Cl)cc1 (centres undefined)
55 | 4.26% (inactive) | COC(=O)c1oc2ccc(Br)cc2c1NC(=O)CN1CCN(C)CC1
56 | -15.3% (inactive) | COc1ccc(NC(=O)CN(C)C(=O)C2(c3ccccc3)CCCC2)cc1
57 | 5.46% (inactive) | Cc1ccc(S(=O)(=O)N2CCC(=O)N(CCOCc3cccc(F)c3)CC2)cc1
58 | 0.656% (inactive) | O=C(Cn1c(C(=O)NCCCN2CCOCC2)cc2sccc21)c1ccccc1
59 | -3.29% (inactive) | CCN1CCN(C(=O)/C(=C/c2ccco2)NC(=O)c2ccccc2)CC1
